# Where “and” joins values, the source holds several entries; their conditions need not be identical. Identical values can stand only once.
# Legend:
# [1] = tested on: inflammatory cells in BALF (neutrophils, macrophages, lymphocytes); test: Inflammatory cell analysis in BALF of M. pneumoniae-infected mice; type: in vivo, BALB/c mice
# Method: (§1) Adult BALB/c mice (20–22 g) were divided into a control group, a positive group, and compound 16C groups at low (20 mg/kg), medium (40 mg/kg), and high-dose (80 mg/kg) levels and oral and intramuscular tiamulin treatment groups (40 mg/kg). We formulated the above dose range based on the dose at which tiamulin was approved for injection (10–20 mg/kg) and the dose previously reported (45 mg/kg) ([EMA, 1999]; [Xiao et al., 2016]). In summary, we selected similar doses for compound 16C in vivo study. 40 mg/kg was used as an intermediate value, one-half of it as a low dose, and two times of it as a high dose. To prepare the challenge solution, logarithmic phase culture suspensions were centrifuged at 1700 g for 10 min, and the pellets were suspended in sterile PBS to obtain 1 × 10^9 CFU/mL. Before the challenge, mice were anesthetized with tribromoethanol (250 mg/kg, IP). Mice in the control groups were intratracheally inoculated with sterile PBS, whereas mice in the other groups were intratracheally challenged with 50 μL (1 × 10^9 CFU/mL) M. pneumoniae suspension once a day for 3 days. Compound 16C and tiamulin (tiamulin-IM group) dissolved using the method mentioned in pharmacokinetic studies, and the tiamulin fumarate soluble powder was dissolved in ddH2O for oral administration. After the final challenge, antibiotics were administered at low, medium, and high-dose levels (see above) at 10 a.m. and 10 p.m. daily for 4 consecutive days. Normal saline containing 5% DMSO and 5% Tween-80 was administered as control and positive groups by thigh intramuscular injection. To compare the efficacy of compound 16C and tiamulin under the same route of administration, we used the original tiamulin for intramuscular administration in the same formulation. On the other hand, tiamulin fumarate soluble powder, approved for oral administration to treat animal mycoplasma diseases in China, was administered to mice by gavage. Based on a clinical study of lefamulin in community-acquired bacterial pneumonia (CABP), subjects were administered twice a day and the 96 ± 24 h of starting treatment was an essential point for early clinical response (ECR) ([Paukner et al., 2022]). We therefore stopped treatment at 96 h and sampled at 192 h to explore whether the disease worsened after cessation of treatment. Bronchoalveolar lavage fluid (BALF) and lungs were collected at 0, 96, 192 h (Samples of 0 h were collected before starting treatment, and mice were fed ad libitum without drug treatment during 96–192 h) after the first dose, BALF for cytokine and cytological analysis and lung for histopathological evaluation.
# Bronchoalveolar lavage was performed according to a standardized method ([Van Hoecke et al., 2017]). BALF was obtained following infusion of 0.5 mL PBS via tracheal cannulation into the lung twice (total 1 mL), and 200 µL was used for mycoplasma counts. The remaining BALF was centrifuged at 300 g for 10 min to separate the debris. The supernatants were stored at −80°C, and the debris was resuspended in the same volume of PBS containing red blood cell lysis buffer. A hemocytometer was used to count total cell numbers in BALF, and cell smears (Diff-Quik staining) were prepared to calculate the percentages of neutrophils, macrophages, and lymphocytes. IFN-γ, TNF-α, and CXCL1 levels in BALF samples were assessed using commercial ELISA kits using guidelines recommended by the manufacturer (Elabscience, Wuhan, China). Parallel data for each experimental group at each time point were obtained from six different mice.
# [2] = tested on: Mycoplasma pneumoniae-infected mice (lung tissue); test: Histopathological assessment of lung tissue (HPS, response and recovery rates) in M. pneumoniae-infected mice; type: in vivo, BALB/c mice; parameters: HPS value (mean) / HPS: scale not given here; details: for HPS: individual mice
# Method: as §1
# Lung tissues were collected at 0, 96, and 192 h following drug administration. Lungs were collected from 6 mice in each group at 96 h and 13–15 mice in each group at 192 h. In addition, the lungs of 8 untreated infected mice were taken at 0 h as initial controls. Lung tissues were fixed in 4% paraformaldehyde, and whole-mount sections of paraffin-embedded lungs were stained with hematoxylin and eosin (H&E). The histopathologic score (HPS) was determined according to published protocols by a single pathologist who was unaware of the treatment status and groups of the animals ([Cimolai et al., 1992]). The HPS was based on individual grading of peribronchiolar/bronchial infiltrate, bronchiolar/bronchial luminal exudate, perivascular infiltrate, and parenchymal pneumoniae.
# [3] = M. pneumoniae-infected mice, 20mg/kg, intramuscular, n=13-15
# [4] = M. pneumoniae-infected mice, 40mg/kg, intramuscular, n=13-15
# [5] = M. pneumoniae-infected mice, 80mg/kg, intramuscular, n=13-15
# [6] = compound 16C 20 mg/kg IM, 192 h
# [7] = compound 16C 40 mg/kg IM, 192 h
# [8] = compound 16C 40 mg/kg IM, from HPS at 192 h
# [9] = compound 16C 80 mg/kg IM, 192 h
# [10] = compound 16C 80 mg/kg IM, from HPS at 192 h
smiles,measurement,setting,value
"C=CC1(C)CC(OC(=O)CSc2ccc(NC(=O)Cc3ccc([N+](=O)[O-])cc3)cc2)C2(C)C(C)CCC3(CCC(=O)C32)C(C)C1O (stereo not shown) [compound 16C, 22–((4-((4-nitrophenyl)acetamido)phenyl)thio)deoxypleuromutilin]","cell counts, 中 (neutrophils) (AV)","[1]; 40mg/kg, time 96",2.373 n*10^5
same,"cell counts, 巨 (macrophages) (AV)","[1]; 40mg/kg, time 96",2.398 n*10^5
same,"cell counts, 淋 (lymphocytes) (AV)","[1]; 40mg/kg, time 96",2.312 n*10^5
same,"cell counts, total (AV)","[1]; 40mg/kg, time 192",3.683 n*10^5
same,"cell counts, 中 (neutrophils) (AV)","[1]; 40mg/kg, time 192",1.76 n*10^5
same,"cell counts, 巨 (macrophages) (AV)","[1]; 40mg/kg, time 192",0.9141 n*10^5
same,"cell counts, 淋 (lymphocytes) (AV)","[1]; 40mg/kg, time 192",1.009 n*10^5
same,"cell counts, total (AV)","[1]; 80mg/kg, time 0",35.9167 n*10^5
same,"cell counts, 中 (neutrophils) (AV)","[1]; 80mg/kg, time 0",31.0489 n*10^5
same,"cell counts, 巨 (macrophages) (AV)","[1]; 80mg/kg, time 0",3.441 n*10^5
same,"cell counts, 淋 (lymphocytes) (AV)","[1]; 80mg/kg, time 0",1.427 n*10^5
same,"cell counts, total (AV)","[1]; 80mg/kg, time 96",2.675 n*10^5
same,"cell counts, 中 (neutrophils) (AV)","[1]; 80mg/kg, time 96",0.2904 n*10^5
same,"cell counts, 巨 (macrophages) (AV)","[1]; 80mg/kg, time 96",0.8707 n*10^5
same,"cell counts, 淋 (lymphocytes) (AV)","[1]; 80mg/kg, time 96",1.514 n*10^5
same,"cell counts, total (AV)","[1]; 80mg/kg, time 192",2.742 n*10^5
same,"cell counts, 中 (neutrophils) (AV)","[1]; 80mg/kg, time 192",0.4795 n*10^5
same,"cell counts, 巨 (macrophages) (AV)","[1]; 80mg/kg, time 192",1.166 n*10^5
same,"cell counts, 淋 (lymphocytes) (AV)","[1]; 80mg/kg, time 192",1.096 n*10^5
same,number of cells in BALF four days following treatment cessation,"[1]; compound 16C 20, 40, and 80 mg/kg dose groups, 192 h, similar to control group (P> 0.05)",lower than that of the positive control
same,total number of inflammatory cells in BALF compared with the positive controls,"[1]; compound 16C low-dose (20 mg/kg IM), after 4 days of treatment (96 h)",not statistically significant
same,Recovery,[2]; [3],20.00%
same,Response,[2]; [3],93.33%
same,Recovery,[2]; [4],35.7%
same,Response,[2]; [4],100%
same,Recovery,[2]; [5],50%
same,Response,[2]; [5],100%
same,HPS value (mean),"[2]; compound 16C 20 mg/kg IM, 96 h",1.08
same,HPS,"[2]; compound 16C 20 mg/kg IM, 96 h",0.5 and 1 and 1.5
same,HPS value (mean),[2]; [6],1
same,HPS,[2]; [6],1 and 0 and 4 and 0.5 and 1.5
same,Recovery,"[2]; compound 16C 20 mg/kg IM, from HPS at 192 h (HPS reduced to 0)",20.00%
same,Recovery,"[2]; compound 16C 20 mg/kg IM, from HPS at 192 h (HPS reduced to 0), listed as Compound16C",20%
same,Response,"[2]; compound 16C 20 mg/kg IM, from HPS at 192 h, n = 13–15",93.33%
same,HPS value (mean),"[2]; compound 16C 40 mg/kg IM, 96 h",1
same,HPS,"[2]; compound 16C 40 mg/kg IM, 96 h",1 and 1.5 and 0
same,HPS value (mean),[2]; [7],0.46
same,HPS,[2]; [7],0.5 and 0 and 2 and 1
same,Recovery,[2]; [8],35.7%
same,Response,[2]; [8],100%
same,HPS value (mean),"[2]; compound 16C 80 mg/kg IM, 96 h",0.75
same,HPS,"[2]; compound 16C 80 mg/kg IM, 96 h",0.5 and 0 and 1
same,HPS value (mean),[2]; [9],0.43
same,HPS,[2]; [9],0 and 0.5 and 1 and 1.5
same,Recovery,[2]; [10],50%
same,Response,[2]; [10],100%
